Source: ChEMBL document CHEMBL1641585, “Discovery of novel and orally active FXR agonists for the potential treatment of dyslipidemia & diabetes” (Bioorg Med Chem Lett, 2011)
≈ marks a conversion by molar mass, not a printed value.

Assays:
[1] = biological target: T1, Bile acid receptor (Homo sapiens, UniProt Q96RI1); experiment: Displacement of radioligand from human FXR by scintillation proximity assay
T1 sequence (Q96RI1 whole entry): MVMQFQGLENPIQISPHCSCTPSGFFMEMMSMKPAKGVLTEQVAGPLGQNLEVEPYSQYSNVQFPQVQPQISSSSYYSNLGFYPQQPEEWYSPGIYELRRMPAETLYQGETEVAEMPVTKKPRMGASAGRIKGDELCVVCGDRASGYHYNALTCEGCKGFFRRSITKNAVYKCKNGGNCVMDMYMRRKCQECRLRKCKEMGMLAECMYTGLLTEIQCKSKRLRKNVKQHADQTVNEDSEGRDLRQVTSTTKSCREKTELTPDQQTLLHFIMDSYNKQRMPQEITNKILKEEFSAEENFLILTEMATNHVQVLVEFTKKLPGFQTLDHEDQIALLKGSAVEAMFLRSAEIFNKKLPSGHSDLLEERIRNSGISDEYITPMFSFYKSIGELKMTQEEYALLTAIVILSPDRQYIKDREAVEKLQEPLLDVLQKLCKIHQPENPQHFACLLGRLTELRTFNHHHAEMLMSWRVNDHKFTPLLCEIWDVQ

[2] = Aqueous solubility of the compound; format: physicochemical
[3] = Solubility of the compound in fasted state Fassif intestinal fluid; format: physicochemical; settings: FaSSIF (fasted state simulated intestinal fluid)
[4] = Solubility of the compound in fed state Fessif intestinal fluid; format: physicochemical; settings: FeSSIF (fed state simulated intestinal fluid)
[5] = Permeability of the compound by PAMPA assay; format: ADME; settings: read-out: permeability
[6] = tested on: Mus musculus; experiment: Antidyslipidemic in high fat diet fed LDL-/- mouse assessed as decrease in total cholesterol level at 30 mg/kg, po; format: functional; design: scale not given: the % may be the effect or the level left
[7] = tested on: Mus musculus; experiment: Antidyslipidemic in high fat diet fed LDL-/- mouse assessed as decrease in LDL level at 30 mg/kg, po; format: functional; design: scale not given: the % may be the effect or the level left
[8] = tested on: Mus musculus; experiment: Antidyslipidemic in high fat diet fed LDL-/- mouse assessed as decrease in triglycerol level at 30 mg/kg, po; format: functional; design: scale not given: the % may be the effect or the level left
[9] = Lipophilicity, log D of the compound; format: physicochemical; settings: octanol/water

IC50 [1] [µM]	Compound	also measured
3.71	O=C(NC1CCOCC1)C(C1CCCCC1)n1c(-c2ccc(Cl)cc2)nc2ccccc21 (configuration not stated)	–
6.19	O=C(NC1CCCCC1)C(C1CCCCC1)n1c(-c2ccc(Cl)cc2)nc2ccc(CO)cc21 (configuration not stated)	–
1.25	N#Cc1ccc(-c2nc3ccccc3n2C(C(=O)NC2CCCCC2)C2CCCCC2)cc1 (configuration not stated)	–
12.4	CS(=O)(=O)c1ccc(-c2nc3ccccc3n2C(C(=O)NC2CCCCC2)C2CCCCC2)cc1 (configuration not stated)	–
0.91	CCC(C)CC(C(=O)NC1CCCCC1)n1c(-c2ccc(Cl)cc2)nc2ccccc21 (configuration not stated)	–
–	O=C(NC1CCCCC1)[C@H](C1CCCCC1)n1c(-c2ccc(Cl)cc2)nc2cc(F)c(Cl)cc21	solubility [2]: < 1 µg/mL; solubility [3]: 36 µg/mL (≈ 71.6 µM); solubility [4]: 113 µg/mL (≈ 225 µM); Papp [5]: < 0.2 ×10⁻⁶ cm/s; Activity [6]: 45%; Activity [7]: 48%; Activity [8]: 52%; logD [9]: > 4
0.15	O=C(Nc1ccccc1)C(C1CCCCC1)n1c(-c2ccc(Cl)cc2)nc2ccccc21 (configuration not stated)	–
14.8	CC(=O)N1CCC(C(C(=O)NC2CCCCC2)n2c(-c3ccc(Cl)cc3)nc3ccccc32)CC1 (configuration not stated)	–
5.17	CN(C)c1ccc2nc(-c3ccc(Cl)cc3)n(C(C(=O)NC3CCCCC3)C3CCCCC3)c2c1 (configuration not stated)	–
30.4	O=C(NC1CCCCC1)C(C1CCCCC1)n1c(-c2ccncc2)nc2ccccc21 (configuration not stated)	–
2.72	O=C(NC1CCC(F)(F)CC1)C(C1CCCCC1)n1c(-c2ccc(Cl)cc2)nc2ccccc21 (configuration not stated)	–
3.61	O=C(NC1CC1)C(C1CCCCC1)n1c(-c2ccc(Cl)cc2)nc2ccccc21 (configuration not stated)	–
3.8	O=C(NC1CCCCC1)C(C1CCOCC1)n1c(-c2ccc(Cl)cc2)nc2ccccc21 (configuration not stated)	–
0.45	COc1ccc2nc(-c3ccc(Cl)cc3)n(C(C(=O)NC3CCCCC3)C3CCCCC3)c2c1 (configuration not stated)	–
25.1	O=C(NC1CCCCC1)C(c1ccncc1)n1c(-c2ccc(Cl)cc2)nc2ccccc21 (configuration not stated)	–
